Laboratory results from patent US12667572B2, “Tricyclic compounds useful in the treatment of cancer, autoimmune and inflammatory disorders” (SCHRÖDINGER, INC., priority 2021, dated 2026).

Molecular target: T1, full-length MALT1 protein His-MALT1(1-824) (Homo sapiens, UniProt Q9UDY8)
T1 construct: full-length MALT1 protein His-MALT1(1-824); His (N); made in house; host or cells: baculovirus-infected insect cells
T1 sequence (Q9UDY8 1-824): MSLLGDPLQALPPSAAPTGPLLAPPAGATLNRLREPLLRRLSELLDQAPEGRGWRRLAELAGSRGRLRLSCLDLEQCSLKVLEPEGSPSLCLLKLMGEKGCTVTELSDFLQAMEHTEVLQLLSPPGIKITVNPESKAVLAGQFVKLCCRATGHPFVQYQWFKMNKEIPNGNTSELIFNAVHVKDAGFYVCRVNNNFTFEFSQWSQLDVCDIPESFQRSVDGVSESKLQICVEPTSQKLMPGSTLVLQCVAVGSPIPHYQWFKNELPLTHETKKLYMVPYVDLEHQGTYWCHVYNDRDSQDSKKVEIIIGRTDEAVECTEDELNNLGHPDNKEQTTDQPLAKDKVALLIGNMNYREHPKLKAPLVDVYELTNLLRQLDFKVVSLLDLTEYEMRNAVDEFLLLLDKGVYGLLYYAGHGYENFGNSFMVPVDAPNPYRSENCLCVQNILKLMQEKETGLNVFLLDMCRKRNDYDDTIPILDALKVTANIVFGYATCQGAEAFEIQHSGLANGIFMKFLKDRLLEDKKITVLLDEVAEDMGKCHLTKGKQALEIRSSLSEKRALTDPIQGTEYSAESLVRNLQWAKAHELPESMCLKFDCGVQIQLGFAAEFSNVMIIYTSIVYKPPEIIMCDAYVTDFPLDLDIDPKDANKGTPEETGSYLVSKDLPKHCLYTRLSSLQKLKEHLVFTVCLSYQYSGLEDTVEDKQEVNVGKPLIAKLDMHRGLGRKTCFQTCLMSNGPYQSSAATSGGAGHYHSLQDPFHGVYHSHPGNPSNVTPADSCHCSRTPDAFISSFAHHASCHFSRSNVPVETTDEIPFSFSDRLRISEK
Assay: MALT1 protease assay, Assay 2 (1 nM MALT1, Ac-LRSR-AMC substrate)
Type: biochemical
Conditions: 1 nM MALT1, 50 μM Ac-LRSR-AMC, 2 h pre-incubation, 8 hr incubation at RT
Protocol: MALT1 protease activity was assessed in an in vitro assay using a tetrapeptide as substrate and full-length MALT1 protein His-MALT1(1-824) purified from baculovirus-infected insect cells. The tetrapeptide substrate is Ac-LRSR-AMC (SM Biochemicals) with Km measured at around 100 μM.
The final assay buffer includes 1 nM (Assay 2) or 2 nM (Assay 1) of MALT1 full-length protein, 50 μM Ac-LRSR-AMC substrate, 50 mM Tris pH 7.5, 600 mM Sodium Citrate, 1 mM DTT, 1 mM EDTA, and 0.05% BSA in 384-well plate format using black microtiter square well plates (Optiplate 384-F, Perkin Elmer).
Test compounds were dissolved in 100% DMSO at stock of 10 mM, with final DMSO concentration 0.1%. Test compounds were pre-incubated with MALT1 protein for 2 h at room temperature. Substrate was added after the pre-incubation and fluorescence signal was measured using Envision at excitation 355 nm and emission 460 nm after 8 hr incubation at RT. Increase in the assay signal was linear over this period and proportional with increase in the enzyme content.
The fluorescence units were transformed to percentage of remaining activity by using the high control (HC, median of fluorescence signal from wells containing MALT1 protein, substrate, and DMSO) and low control (LC, median of fluorescence signal from wells with substrate only) with the formula below: […]
IC50 and Hill coefficients were obtained using Graph Pad Prism (Graph Pad software, Inc, USA) with non-linear regression analysis.

| IC50 [nM] | SMILES |
| --- | --- |
| 100 to 1000 | O=C(Nc1cnc(-n2nccn2)c(C(F)(F)F)c1)[C@H]1C[C@@]2(CCO2)c2c1cnc1cc(Cl)nn21 (racemic) [Example 116, (trans)-N-(6-(2H-1,2,3-triazol-2-yl)-5˜(trifluoromethyl)pyridin-3-yl)-2-chloro-6,7-dihydrospiro[cyclopenta[e]pyrazolo[1,5-a]pyrimidine-8,2′-oxetane]-6-carboxamide] |
| 10 to 100 | O=C(Nc1cnc(-n2nccn2)c(C(F)(F)F)c1)[C@H]1C[C@]2(CCO2)c2c1cnc1cc(Cl)nn21 (racemic) [Example 117, (cis)-N-(6-(2H-1,2,3-triazol-2-yl)-5˜(trifluoromethyl)pyridin-3-yl)-2-chloro-6,7-dihydrospiro[cyclopenta[e]pyrazolo[1,5-a]pyrimidine-8,2′-oxetane]-6-carboxamide] |
| ≥ 1000 | CC1(C)C[C@@H](C(=O)Nc2cnc(-n3nccn3)c(C(F)(F)F)c2)c2cnc3cc(Cl)nn3c21 (single isomer, unassigned) [Example 45, N-(6-(2H-1,2,3-triazol-2-yl)-5˜(trifluoromethyl)pyridin-3-yl)-2-chloro-8,8-dimethyl-7,8-dihydro-6H-cyclopenta[e]pyrazolo[1,5-a]pyrimidine-6-carboxamide] |
| ≥ 1000 | CC1(C)C[C@@H](C(=O)Nc2cnc(-n3nccn3)c(C(F)F)c2)c2cnc3cc(Cl)nn3c21 (single isomer, unassigned) [Example 46, 2-chloro-N-(5-(difluoromethyl)-6-(2H-1,2,3-triazol-2-yl)pyridin-3-yl)-8,8-dimethyl-7,8-dihydro-6H-cyclopenta[e]pyrazolo[1,5-a]pyrimidine-6-carboxamide] |
| ≥ 1000 | C[C@H](O)c1cnn(-c2ncc(NC(=O)[C@@H]3CC(C)(C)c4c3cnc3cc(Cl)nn43)cc2Cl)n1 (single isomer, unassigned) [Example 50, 2-chloro-N-(5-chloro-6-(4-(1-hydroxyethyl)-2H-1,2,3-triazol-2-yl)pyridin-3-yl)-8,8-dimethyl-7,8-dihydro-6H-cyclopenta[e]pyrazolo[1,5-a]pyrimidine-6-carboxamide] |
| 100 to 1000 | C[C@@H](O)c1cnn(-c2ncc(NC(=O)[C@@H]3CC(C)(C)c4c3cnc3cc(Cl)nn43)cc2Cl)n1 (single isomer, unassigned) [Example 52, 2-chloro-N-(5-chloro-6-(4-(1-hydroxyethyl)-2H-1,2,3-triazol-2-yl)pyridin-3-yl)-8,8-dimethyl-7,8-dihydro-6H-cyclopenta[e]pyrazolo[1,5-a]pyrimidine-6-carboxamide] |
| 100 to 1000 | C[C@@]1(C(F)(F)F)C[C@@H](C(=O)Nc2cnc(-n3nccn3)c(C(F)(F)F)c2)c2cnc3cc(Cl)nn3c21 (single isomer, unassigned) [Example 53, N-(6-(2H-1,2,3-triazol-2-yl)-5˜(trifluoromethyl)pyridin-3-yl)-2-chloro-8-methyl-8-(trifluoromethyl)-7,8-dihydro-6H-cyclopenta[e]pyrazolo[1,5-a]pyrimidine-6-carboxamide] |
| 10 to 100 | C[C@]1(C(F)(F)F)C[C@@H](C(=O)Nc2cnc(-n3nccn3)c(C(F)(F)F)c2)c2cnc3cc(Cl)nn3c21 (single isomer, unassigned) [Example 55, N-(6-(2H-1,2,3-triazol-2-yl)-5˜(trifluoromethyl)pyridin-3-yl)-2-chloro-8-methyl-8-(trifluoromethyl)-7,8-dihydro-6H-cyclopenta[e]pyrazolo[1,5-a]pyrimidine-6-carboxamide] |
| 100 to 1000 | CC1(C)C[C@@H](C(=O)Nc2cc(C(F)F)c(-c3ncco3)c(=O)[nH]2)c2cnc3cc(Cl)nn3c21 (single isomer, unassigned) [Example 57, 2-chloro-N-(4-(difluoromethyl)-5˜(oxazol-2-yl)-6-oxo-1,6-dihydropyridin-2-yl)-8,8-dimethyl-7,8-dihydro-6H-cyclopenta[e]pyrazolo[1,5-a]pyrimidine-6-carboxamide] |
| 10 to 100 | CC1(C)C[C@H](C(=O)Nc2cc(C(F)F)c(-c3ncco3)c(=O)[nH]2)c2cnc3cc(Cl)nn3c21 (single isomer, unassigned) [Example 58, 2-chloro-N-(4-(difluoromethyl)-5˜(oxazol-2-yl)-6-oxo-1,6-dihydropyridin-2-yl)-8,8-dimethyl-7,8-dihydro-6H-cyclopenta[e]pyrazolo[1,5-a]pyrimidine-6-carboxamide] |
| 100 to 1000 | C[C@]1(C(F)(F)F)C[C@@H](C(=O)Nc2cnc(-n3nccn3)c(C(F)F)c2)c2cnc3cc(Cl)nn3c21 (single isomer, unassigned) [Example 63, 2-chloro-N-(5-(difluoromethyl)-6-(2H-1,2,3-triazol-2-yl)pyridin-3-yl)-8-methyl-8-(trifluoromethyl)-7,8-dihydro-6H-cyclopenta[e]pyrazolo[1,5-a]pyrimidine-6-carboxamide] |
| 100 to 1000 | C[C@@]1(C(F)(F)F)C[C@@H](C(=O)Nc2cnc(-n3nccn3)c(C(F)F)c2)c2cnc3cc(Cl)nn3c21 (single isomer, unassigned) [Example 65, 2-chloro-N-(5-(difluoromethyl)-6-(2H-1,2,3-triazol-2-yl)pyridin-3-yl)-8-methyl-8-(trifluoromethyl)-7,8-dihydro-6H-cyclopenta[e]pyrazolo[1,5-a]pyrimidine-6-carboxamide] |
| 100 to 1000 | CC1(C)CC(C(=O)Nc2cnc(OC(F)F)c(Cl)c2)c2cnc3cc(Cl)nn3c21 (single isomer, unassigned) [Example 67, 2-chloro-N-(5-chloro-6-(difluoromethoxy)pyridin-3-yl)-8,8-dimethyl-7,8-dihydro-6H-cyclopenta[e]pyrazolo[1,5-a]pyrimidine-6-carboxamide] |
| ≥ 1000 | CC1(C)OC(C(=O)Nc2cnc(-n3nccn3)c(Cl)c2)c2cnc3cc(Cl)nn3c21 (single isomer, unassigned) [Example 70, 2-chloro-N-(5-chloro-6-(2H-1,2,3-triazol-2-yl)pyridin-3-yl)-8,8-dimethyl-6,8-dihydrofuro[3,4-e]pyrazolo[1,5-a]pyrimidine-6-carboxamide] |
| 100 to 1000 | CC1(C)O[C@H](C(=O)Nc2cnc(-n3nccn3)c(Cl)c2)c2cnc3cc(Cl)nn3c21 (single isomer, unassigned) [Example 71, 2-chloro-N-(5-chloro-6-(2H-1,2,3-triazol-2-yl)pyridin-3-yl)-8,8-dimethyl-6,8-dihydrofuro[3,4-e]pyrazolo[1,5-a]pyrimidine-6-carboxamide] |
| ≥ 1000 | CN(C(=O)c1ncc(NC(=O)[C@@H]2CC(C)(C)c3c2cnc2cc(Cl)nn32)cc1C(F)F)C1CC1 (single isomer, unassigned) [Example 72, 2-chloro-N-(6-(cyclopropyl(methyl)carbamoyl)-5-(difluoromethyl)pyridin-3-yl)-8,8-dimethyl-7,8-dihydro-6H-cyclopenta[e]pyrazolo[1,5-a]pyrimidine-6-carboxamide] |
| ≥ 1000 | CC1(C)CC(C(=O)Nc2cnc(OC3CC3)c(Cl)c2)c2cnc3cc(Cl)nn3c21 (single isomer, unassigned) [Example 74, 2-chloro-N-(5-chloro-6-cyclopropoxypyridin-3-yl)-8,8-dimethyl-7,8-dihydro-6H-cyclopenta[e]pyrazolo[1,5-a]pyrimidine-6-carboxamide] |
| ≥ 1000 | CC1(C)CC(C(=O)Nc2cnc(OC(F)F)c(Cl)c2)c2cnc3cc(F)nn3c21 (single isomer, unassigned) [Example 76, N-(5-chloro-6-(difluoromethoxy)pyridin-3-yl)-2-fluoro-8,8-dimethyl-7,8-dihydro-6H-cyclopenta[e]pyrazolo[1,5-a]pyrimidine-6-carboxamide] |
| 100 to 1000 | CC1(C)CC(C(=O)Nc2cnc(OC(F)F)c(C#N)c2)c2cnc3cc(Cl)nn3c21 (single isomer, unassigned) [Example 78, 2-chloro-N-(5-cyano-6-(difluoromethoxy)pyridin-3-yl)-8,8-dimethyl-7,8-dihydro-6H-cyclopenta[e]pyrazolo[1,5-a]pyrimidine-6-carboxamide] |
